From US11213494B2 (priority 2016, dated 2022)

Columns and labels:
[1] = in vivo; cited from earlier work
Mecp2 Het mice = experiment: Prepulse inhibition (PPI) of the acoustic startle response; assay type: in vivo; settings: ketamine 8 mg/kg; for % PPI 73 dB: prepulse 73 dB; for % PPI 76 dB: prepulse 76 dB; for % PPI 82 dB: prepulse 82 dB
Method: Prepulse inhibition (PPI) of the acoustic startle response (ASR) was measured to assess sensorimotor gating function using Med Associates Startle Response recording system. Mice were divided into four groups (Het ketamine, Het vehicle, Wt ketamine, Wt vehicle), and received injections of either ketamine (8 mg/kg) or an equivalent amount of saline immediately before they were placed individually inside a small-sized, nonrestrictive, cubical Plexiglas recording chamber [2.5 inches (L)×2.5 inches (W)×1.75 inches (H)] fixed on an accelerometer platform and allowed to acclimate for 5 min. Subsequently, the mouse was exposed to 4 testing blocks. In the first testing block, the initial startle response amplitude was determined by delivering a 40 ms pulse of 120 dB broadband white noise and recording the maximum startle amplitude (Vmax). A baseline startle response was determined by repeating this recording paradigm for six consecutive trials (with 8-23 s between each stimulus) and calculating the average Vmax measured in those trials. In the second and third testing blocks, the mice were exposed to a series of “pulse-only” or “prepulse-pulse pair” stimuli to determine the effect that a reduced intensity prepulse had on the acoustic startle response. The pulse-only stimulus consisted of an 80 ms stimulus of 120 dB. The prepulse-pulse pair trials were conducted by delivering a single 20 ms prepulse, with an intensity of 73, 76 or 82 dB before an 80 ms stimulus with an intensity of 120 dB. An average delay of 15 s (8-23 s) occurred between each stimulus. Each prepulse-pulse pair trial was repeated 10 times, pulse only trials were repeated 12 times. The Vmax measured from each prepulse-pulse trial was compared with the Vmax measured from the 120 dB pulse-only trials, and a percentage prepulse inhibition (% PPI) was calculated for each prepulse intensity. In the fourth testing block, startle response Vmax was recorded from 6 additional 40 ms pulses of 120 dB broadband white noise (with 8-23 s between each stimulus) and compared with the baseline startle response from the first testing block to eliminate the possibility of habituation to the acoustic stimulus throughout the test.

[2] = test system: RTT mice (Mecp2Jae females); experiment: Intermittent very low dose ketamine regimen with plethysmography; assay type: in vivo; settings: 3 mg/kg once every 3 days for two weeks, measured 24 hours after the last injection
Method: FIG. 14 illustrates a very low dose ketamine (3 mg/kg) dosing regimen for the treatment of RTT in miceMecp2Jae OC females treated once every 72 hours for two weeks (saline or Ketamine 3 mg/kg) with plethysmography measurement 24 hours after the last injection.
This Example evaluated a ketamine dosing regimen for the treatment of Rett syndrome. […] These effects are consistent with the ability of ketamine to increase activity in cortical pyramidal cells by selectively inhibiting cortical inhibitory interneurons.

[3] = test system: Fos expression in the forebrain (piriform cortex); experiment: Fos immunostaining 90 min after ketamine injection, count of Fos-positive cells; assay type: in vivo, mice; settings: for number of Fos-positive cells in the piriform cortex: 90 min after injection
Method: Three- and 6-week-old male mice, or 11-week-old female mice, were deeply anesthetized by inhalation of isoflurane and perfused transcardially with PBS followed by ice-cold 4% paraformaldehyde in 0.1Mphosphate buffer, pH7.4, within 10 min. […] Brains were postfixed in 4% paraformaldehyde for 2.5 h, cryoprotected in 25% sucrose overnight, then frozen in 2-methylbutane at −45° C. and stored at −80° C. Coronal sections were cut at 40 μm with a cryostat microtome (Jung Frigocut 2800 N) and stored in PBS at 4° C.
Free-floating 40 μm sections were processed for Fos immunostaining by blocking with 10% goat serum in dilution buffer (PBS, BSA, 0.3% Triton X-100) for 1.5 h and then incubated overnight at room temperature (20±2 h) in rabbit polyclonal anti-c-Fos primary antibody (1:3000, Calbiochem) in dilution buffer plus 10% goat serum. After sequential rinse steps in dilution buffer and PBS, sections were incubated in biotinylated goat anti-rabbit IgG secondary antibody (1:400, Vector Labs) in dilution buffer plus 15% goat serum for 1 h. After rinsing in PBS, sections were incubated in avidin and biotinylated horseradish peroxidase complex (ABC, 1:150, Vector Labs). Finally, sections were developed using the Sigma Fast diaminobenzidine and urea hydrogen peroxide set, mounted on Super Frost Plus slides and coverslipped using VectaShield (Vector Labs).
Animals were administered ketamine (8, 20, or 100 mg/kg, i.p.) or an equivalent volume of saline and then returned to their home cage for 90 min. Subsequently, the animals were deeply anesthetized by inhalation of isoflurane, perfused transcardially, and processed for Fos staining as described above.
Sections were visualized and photographed using an AxioSkop2 microscope (Zeiss) equipped with a Quantifire XI microscope camera (Optronics). Fos positive cells were counted using point by-point analysis with Neurolucida software (MBF Bioscience). Before analysis, the photomicrographs were coded so that the observers were blinded to the genotype. Cells were counted in every third section through the nTS, and in a representative subset of sections through the other brain regions analyzed. All sections were analyzed twice by two independent and blinded observers, and respective counts were averaged. The nTS was sampled at 12 levels through the rostro-caudal extent of the nucleus and the average counts at each level were then added together to estimate the total number of labeled cells per animal. To define genotype effects on Fos expression, G*Power 3 power analysis software was used to determine group sizes.

## CNC1(c2ccccc2Cl)CCCCC1=O (stereo not drawn) [ketamine]
[1]
  half-life: less than 1 hour
Mecp2 Het mice; Het mice
  % PPI 73 dB: 5.3±5.8%
  % PPI 76 dB: 17.8±2.9%
  % PPI 82 dB: 21.4±6.4%
Mecp2 Het mice; Wt mice
  % PPI 73 dB: 7.8±4.1%
  % PPI 76 dB: 12.8±4.8%
  % PPI 82 dB: 24.1±5.8%
[2]
  apneic breathing: complete elimination
[3]; Null mice, ketamine 20 mg/kg i.p.
  number of Fos-positive cells in the piriform cortex: 83.2±18.2 cells
[3]; Null mice, ketamine 100 mg/kg i.p.
  number of Fos-positive cells in the piriform cortex: 116.3±26.4 cells
[3]; Wt mice, ketamine 100 mg/kg i.p.
  number of Fos-positive cells in the piriform cortex: 119.3±17.2 cells
[3]; Wt mice, ketamine 100 mg/kg, piriform cortex
  increase in the number of Fos-positive cells: 20%
